One data set concerns the target T1, trehalase (Arabidopsis thaliana, UniProt Q9SU50).
T1 sequence (Q9SU50 1-626): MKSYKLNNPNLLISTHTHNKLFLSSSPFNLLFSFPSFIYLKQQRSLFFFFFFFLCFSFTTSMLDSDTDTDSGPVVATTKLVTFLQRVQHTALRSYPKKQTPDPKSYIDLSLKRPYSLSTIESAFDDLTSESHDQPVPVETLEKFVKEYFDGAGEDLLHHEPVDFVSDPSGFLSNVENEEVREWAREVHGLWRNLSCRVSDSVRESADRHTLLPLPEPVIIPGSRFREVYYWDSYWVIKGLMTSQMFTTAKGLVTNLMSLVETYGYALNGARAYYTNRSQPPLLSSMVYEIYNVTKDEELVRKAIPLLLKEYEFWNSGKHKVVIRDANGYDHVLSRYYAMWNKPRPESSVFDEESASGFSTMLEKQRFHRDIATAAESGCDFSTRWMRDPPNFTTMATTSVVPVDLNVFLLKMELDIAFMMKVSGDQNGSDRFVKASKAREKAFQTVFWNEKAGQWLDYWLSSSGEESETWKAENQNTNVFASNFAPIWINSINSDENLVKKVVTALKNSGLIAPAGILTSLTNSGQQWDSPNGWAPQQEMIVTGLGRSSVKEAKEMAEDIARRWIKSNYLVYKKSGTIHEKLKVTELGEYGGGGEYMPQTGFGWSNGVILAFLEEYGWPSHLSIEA
As to conditions: cited from earlier work.

The next data set deals with plants. The conditions noted are these: Val A treatment, cited from earlier work.
Data set [1] relates to Arabidopsis seedlings. Put plainly: Seedling growth assay on trehalose with or without Val A. Format: in vivo, Arabidopsis thaliana. The conditions noted are these: for sensitivity to trehalose, root length: with Val A. The procedure:
FIG. 3: Growth phenotypes of AtTRE1 mutants on trehalose. Panel A, GT tre KO lines and wt Ler with Val A. Panel B, SA TRE OX lines and wt Col with Val A. Panel C, GT tre KO lines and wt Ler without Val A. Panel D, SA TRE OX lines and wt Col without Val A. Approximately 30 seedlings/treatment were grown on vertical plates, 1× MS without suc, in a 12 hours-12 hours day/night cycle, for 10 days with 0, 0.5, 1, 5, 10, or 25 mM trehalose. Data are means±SE.
FIG. 4: Growth phenotypes of AtTRE1 mutants on high trehalose. Seedlings grown in the same conditions as described in FIG. 3, without Val A, and with higher concentration of trehalose: 50, 100, 150, and 200 mM. Representative seedlings are shown.
Vapor-sterilized seeds were sown after a 48-hour stratification period in vertically or horizontally oriented Petri dishes on a full strength (or mentioned otherwise) Murashige and Skoog Salt Mixture including vitamins (MS) medium (4.3 g/l) with MES (0.5 g/l) and solidified with Phytagar (8 g/l) (Duchefa, Haarlem, The Netherlands). The media was enriched with sucrose/glucose (0-6%) or trehalose, depending on the tested conditions, which are specified. Val A was added in a concentration of 10 μM.
In our growth assay, no extra sugar was added to the media.

Data set [2] concerns Arabidopsis seedlings. The conditions noted are these: absence of Val A; cited from earlier work.

`OCC1=C[C@@H](N[C@H]2C[C@H](CO)[C@@H](O[C@H]3O[C@@H](CO)[C@H](O)[C@@H](O)[C@@H]3O)[C@H](O)[C@H]2O)[C@H](O)[C@@H](O)[C@@H]1O` [Validamycin A]: the trehalase activity entry at trehalase is listed as “specifically inhibits trehalase activity”. Moreover, the phytotoxicity result in the data set with plants (adult plants) is “causes phytotoxicity”. Moreover, the “phenotypic irregularities in seedlings” value with plants (seedlings) is “no phenotypic irregularities”. The “inhibition of trehalase activity in the OX lines” value in the data set with Arabidopsis seedlings [1] (Val A 10 μM, SA TRE OX lines, concluded from growth on trehalose) is recorded as “not sufficient to inhibit increased trehalase activity”.

As for `OC[C@H]1O[C@H](O[C@H]2O[C@H](CO)[C@@H](O)[C@H](O)[C@H]2O)[C@H](O)[C@@H](O)[C@@H]1O` [trehalose, α-D-glucopyranosyl-1,1-α-D-glucopyranoside], the “sensitivity to trehalose, root length” value was “more dramatic decrease in root length” in the data set on Arabidopsis seedlings [1] (Col wild-type plants, 10 mM trehalose) and “rather gradual inhibitory effect” with Arabidopsis seedlings [1] (Ler wild-type plants). The “development with increasing trehalose concentrations” value in the data set on Arabidopsis seedlings [1] (GT tre KO mutants versus wild-type Ler, without Val A) is on record as “significantly more affected in development”. Besides, the “resistance to higher trehalose levels” value in the data set on Arabidopsis seedlings [1] (SA TRE OX plants versus wild-type controls, in the presence of Val A) is recorded as “significantly more resistant”. Besides, the “sensitivity to high trehalose concentrations” value in the data set with Arabidopsis seedlings [1] (SA TRE OX plants versus wild-type seedlings, without Val A, up to 200 mM) was “insensitive”. The “root growth and development of wild-type seedlings” value with Arabidopsis seedlings [1] (gradually increased trehalose (0-25 mM) in the presence of Val A 10 μM, no extra sugar, 10 days) is “increased inhibition of root growth and development”. Further, the “development of wild-type seedlings on high trehalose concentrations” value in the data set on Arabidopsis seedlings [2] was “arrest with development shortly after germination”.

(Values after patent US20120005774A1, “USE OF TREHALASE TO OBTAIN DROUGHT RESISTANCE IN PLANTS” (KATHOLIEKE UNIVERSITEIT LEUVEN, K.U. LEUVEN R & D, priority 2009, published 2012).)
